Entries after “also recorded” stand apart in the source; their conditions may differ.
How the values were obtained:
A53T αSyn = assay: Dopaminergic neuron viability assay, A53T αSyn adenovirus transduced primary midbrain cultures; type: cell-based, rat
Description: (§1) Primary midbrain cultures were prepared and dopaminergic neuronal viability in the presence and absence of αSyn was assessed as previously described and repeated herein. Primary midbrain cultures were prepared from embryonic day 17 embryos of Sprague-Dawley rats using methods reviewed and approved by the Purdue Animal Care and Use Committee as described previously. After dissection, the cells were plated into a poly-L-lysine-treated 48-well plate at a density of 163,500 cells per well. Four days later, the cells were treated with cytosine arabinofuranoside (AraC) (20 μM) for 48 hours to inhibit the growth of glial cells. The cultures were used for measurements of dopaminergic neuron viability at 7 days in vitro. […] In order to determine the viability of dopaminergic neurons, MAP2- and TH-positive neurons were counted in 10 to 15 randomly chosen observation fields in a blinded manner using a Nikon TE2000-U inverted fluorescence microscope (Nikon Instruments, Melville NY) with a 20× objective. In the control conditions, and in conditions where the compound was neuroprotective, typically 500 to 1,300 MAP2-positive neurons were counted, a range that corresponds to 20 to 50 TH-positive neurons. The data were expressed as the ratio of the TH-positive neurons to the MAP2-positive neurons. […]

[1] = system: primary rat embryonic midbrain neurons; assay: Toxicity to primary midbrain dopaminergic neurons; type: cell-based; details: compound alone, 60 μM
Description: as §1

αSyn = assay: Western analyses of αSyn levels in H4 cells; type: cell-based, human; details: H4 cells transiently transfected with split Gaussia luciferase tagged αSyn, 150 μM
Description: All materials were purchased from Invitrogen (Carlsbad, CA) unless stated otherwise. Cell from a 6 well dish were washed twice with PBS and lysed with 250 μl of RIPA Lysis buffer with protease and phosphatase inhibitors (Sigma, St. Louis, MO). Lysates were incubated on a shaker for 15 minutes at 4° C. and spun down for 15 min. at 10,000 g. Total protein concentrations were determined by BCA assay (Thermo Fisher, Waltham, MA). 1 ml of media was collected and incubated with protease and phosphatase inhibitors and 50 μl of Ni-agarose beads to collect the His-tagged αSyn (Qiagen, Hilden, Germany) for 2 hrs at […]. Beads were centrifuged and washed in PBS. Cell samples and pelleted beads from the media were placed into Bolt LDS (lithium dodecyl sulfate) sample buffer with 20% β-mercaptoethanol and boiled for 15 min. 5-15 μg of sample (cells) and an equivalent fraction of media were electrophoresed on Bolt 4-12% Bis-Tris Plus gels with Bolt MES SDS running buffer and the Precision Plus Protein Dual Color Standards (Biorad, Hercules, CA) molecular weight markers. After electrophoresis, the separated proteins were transferred onto a 0.2 μm pore size PVDF membrane for 90 minutes at 400 mA and 4° C. in Bolt Transfer Buffer using BioRad midi transfer chambers. […] Membranes were scanned and quantitated using the Odyssey CLx Imaging System (LI-COR, Lincoln, NE). […]

CNC(=O)c1cc(O)ccc1N [Compound 576755, 2-amino-5-hydroxy-N-methylbenzamide]
effect on A53T αSyn neurotoxicity (TH-positive/MAP2-positive neurons) (A53T αSyn; 10 μM): a trend towards a similar inhibitory effect | effect on A53T αSyn neurotoxicity (TH-positive/MAP2-positive neurons) (A53T αSyn; 60 μM): suppressed A53T αSyn neurotoxicity; also recorded: alleviates loss of dopaminergic neurons | toxic effect on primary dopaminergic neurons [1]: no detectable toxic effect; also recorded: not toxic | impact on cellular αSyn protein levels (αSyn): no impact on αSyn levels
